The record followed here is publication PMC7827406, “Structure–Activity Relationship (SAR) Study of Spautin-1 to Entail the Discovery of Novel NEK4 Inhibitors” (International Journal of Molecular Sciences, 2021).

Common to all, as to test: biochemical
Common to all, as to design: Eurofins KinaseProfiler full panel at Km ATP, residual kinase activity (%) relative to DMSO

One test deals with T1, BIKe(h) (Homo sapiens, UniProt Q9NSY1).
T1 construct: gene BMP2K
The method, boiled down: (§1)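 Radiometric kinase activity assays were run with ATP at Km and compounds at 10 µM, and remaining activity (%) was reported. A separate competitive binding screen measured DNA-tagged kinase displaced from immobilized active-site ligands by qPCR, giving percent kinase still bound at 10 µM compound in DMSO.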

In a further test the target is T2, CDKL2(h) (Homo sapiens, UniProt Q92772).
T2 sequence (Q92772 1-493): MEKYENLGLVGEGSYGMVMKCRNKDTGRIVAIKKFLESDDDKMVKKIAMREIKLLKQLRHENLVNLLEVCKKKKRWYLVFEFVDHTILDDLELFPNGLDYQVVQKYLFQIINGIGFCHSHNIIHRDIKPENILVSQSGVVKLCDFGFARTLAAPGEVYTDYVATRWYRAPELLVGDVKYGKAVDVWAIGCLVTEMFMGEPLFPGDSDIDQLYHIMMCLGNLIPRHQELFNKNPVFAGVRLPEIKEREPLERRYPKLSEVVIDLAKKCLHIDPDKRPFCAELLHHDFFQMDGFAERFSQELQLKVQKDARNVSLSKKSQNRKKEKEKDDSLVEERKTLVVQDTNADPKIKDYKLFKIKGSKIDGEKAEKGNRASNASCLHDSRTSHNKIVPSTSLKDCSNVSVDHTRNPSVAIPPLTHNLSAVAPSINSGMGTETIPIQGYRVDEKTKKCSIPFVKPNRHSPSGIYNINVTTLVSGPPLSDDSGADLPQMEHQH
The procedure, abridged:
as §1

Another test addresses JAK1(h) (Homo sapiens, UniProt P23458). The procedure, abridged: as §1
The target in the next test is T3, MLK1(h) (Homo sapiens, UniProt P80192).
T3 construct: gene MAP3K9
The method, boiled down: as §1

The target in another test is T4, NUAK2(h) (Homo sapiens, UniProt Q9H093).
T4 sequence (Q9H093 1-628): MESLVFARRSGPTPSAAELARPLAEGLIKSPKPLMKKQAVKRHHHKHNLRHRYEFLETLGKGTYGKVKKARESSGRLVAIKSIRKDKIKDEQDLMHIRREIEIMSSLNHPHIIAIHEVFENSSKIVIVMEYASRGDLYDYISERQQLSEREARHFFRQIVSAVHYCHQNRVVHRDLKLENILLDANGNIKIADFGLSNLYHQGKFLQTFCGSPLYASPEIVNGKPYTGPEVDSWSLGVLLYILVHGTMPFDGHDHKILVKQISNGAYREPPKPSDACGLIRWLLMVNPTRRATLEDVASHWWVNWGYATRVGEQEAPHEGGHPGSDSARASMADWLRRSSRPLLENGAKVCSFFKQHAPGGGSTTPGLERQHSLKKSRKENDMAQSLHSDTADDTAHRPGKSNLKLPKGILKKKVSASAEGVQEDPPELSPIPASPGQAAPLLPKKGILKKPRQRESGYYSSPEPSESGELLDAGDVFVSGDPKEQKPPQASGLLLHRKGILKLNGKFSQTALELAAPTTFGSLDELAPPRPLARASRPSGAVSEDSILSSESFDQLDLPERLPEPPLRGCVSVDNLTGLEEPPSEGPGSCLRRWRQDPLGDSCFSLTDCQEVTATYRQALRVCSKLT
The method, boiled down: as §1

The target in the next test is T5, PKAcβ(h) (Homo sapiens, UniProt P22694).
T5 construct: gene PRKACB
The method, boiled down: as §1

Another test addresses T6, Pim-3(h) (Homo sapiens, UniProt Q86V86).
T6 construct: gene PIM3
The procedure, abridged:
as §1

In a further test the target is T7, ROCK-II(r) (Rattus norvegicus, UniProt Q62868).
T7 construct: gene Rock2
The method, boiled down:
as §1

A further test has as its target STK25(h) (Homo sapiens, UniProt O00506). The procedure, abridged:
as §1

For another test, the target named is WNK1(h) (Homo sapiens, UniProt Q9H4A3). The method, boiled down:
as §1

Where [1] appears, read: read-out: Residual activity (%) Spautin-1 5aa.
Where [2] appears, read: read-out: Residual activity (%) 5as.
Where [3] appears, read: read-out: Residual activity (%) 5at.
[4] abbreviates: read-out: Residual activity (%) 5ay.

Like-named read-outs stand apart in the source and are kept apart here.

JAK1(h), sequence (P23458 whole entry): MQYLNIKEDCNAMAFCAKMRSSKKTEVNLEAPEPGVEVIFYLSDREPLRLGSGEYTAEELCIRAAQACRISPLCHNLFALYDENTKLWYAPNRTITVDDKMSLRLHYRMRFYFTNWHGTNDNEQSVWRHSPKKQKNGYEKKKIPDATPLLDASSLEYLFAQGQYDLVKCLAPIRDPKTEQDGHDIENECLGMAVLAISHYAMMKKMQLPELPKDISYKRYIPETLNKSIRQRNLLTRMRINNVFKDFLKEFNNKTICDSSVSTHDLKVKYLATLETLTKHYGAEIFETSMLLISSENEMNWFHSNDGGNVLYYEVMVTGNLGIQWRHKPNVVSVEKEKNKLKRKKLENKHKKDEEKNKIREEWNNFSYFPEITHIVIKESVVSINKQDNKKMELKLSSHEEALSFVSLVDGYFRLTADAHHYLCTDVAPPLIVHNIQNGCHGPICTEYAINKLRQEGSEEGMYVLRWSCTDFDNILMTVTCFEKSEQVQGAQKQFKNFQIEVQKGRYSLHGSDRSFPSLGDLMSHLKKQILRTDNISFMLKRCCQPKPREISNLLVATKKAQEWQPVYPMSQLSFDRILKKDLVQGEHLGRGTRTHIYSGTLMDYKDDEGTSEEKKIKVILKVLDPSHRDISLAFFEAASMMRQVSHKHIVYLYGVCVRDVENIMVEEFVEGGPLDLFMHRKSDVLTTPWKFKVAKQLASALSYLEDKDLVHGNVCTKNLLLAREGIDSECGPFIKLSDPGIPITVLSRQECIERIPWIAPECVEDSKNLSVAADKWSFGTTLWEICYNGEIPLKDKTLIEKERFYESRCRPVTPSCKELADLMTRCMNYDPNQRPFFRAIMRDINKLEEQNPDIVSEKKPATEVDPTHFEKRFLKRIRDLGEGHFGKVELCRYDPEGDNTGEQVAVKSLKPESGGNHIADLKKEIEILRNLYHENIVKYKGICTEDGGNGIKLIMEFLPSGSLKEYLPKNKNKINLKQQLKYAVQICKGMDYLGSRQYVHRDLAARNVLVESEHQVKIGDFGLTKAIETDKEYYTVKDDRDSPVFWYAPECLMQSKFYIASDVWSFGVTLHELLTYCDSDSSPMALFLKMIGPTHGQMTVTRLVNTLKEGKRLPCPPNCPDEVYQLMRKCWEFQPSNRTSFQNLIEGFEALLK
T3 sequence (P80192 whole entry): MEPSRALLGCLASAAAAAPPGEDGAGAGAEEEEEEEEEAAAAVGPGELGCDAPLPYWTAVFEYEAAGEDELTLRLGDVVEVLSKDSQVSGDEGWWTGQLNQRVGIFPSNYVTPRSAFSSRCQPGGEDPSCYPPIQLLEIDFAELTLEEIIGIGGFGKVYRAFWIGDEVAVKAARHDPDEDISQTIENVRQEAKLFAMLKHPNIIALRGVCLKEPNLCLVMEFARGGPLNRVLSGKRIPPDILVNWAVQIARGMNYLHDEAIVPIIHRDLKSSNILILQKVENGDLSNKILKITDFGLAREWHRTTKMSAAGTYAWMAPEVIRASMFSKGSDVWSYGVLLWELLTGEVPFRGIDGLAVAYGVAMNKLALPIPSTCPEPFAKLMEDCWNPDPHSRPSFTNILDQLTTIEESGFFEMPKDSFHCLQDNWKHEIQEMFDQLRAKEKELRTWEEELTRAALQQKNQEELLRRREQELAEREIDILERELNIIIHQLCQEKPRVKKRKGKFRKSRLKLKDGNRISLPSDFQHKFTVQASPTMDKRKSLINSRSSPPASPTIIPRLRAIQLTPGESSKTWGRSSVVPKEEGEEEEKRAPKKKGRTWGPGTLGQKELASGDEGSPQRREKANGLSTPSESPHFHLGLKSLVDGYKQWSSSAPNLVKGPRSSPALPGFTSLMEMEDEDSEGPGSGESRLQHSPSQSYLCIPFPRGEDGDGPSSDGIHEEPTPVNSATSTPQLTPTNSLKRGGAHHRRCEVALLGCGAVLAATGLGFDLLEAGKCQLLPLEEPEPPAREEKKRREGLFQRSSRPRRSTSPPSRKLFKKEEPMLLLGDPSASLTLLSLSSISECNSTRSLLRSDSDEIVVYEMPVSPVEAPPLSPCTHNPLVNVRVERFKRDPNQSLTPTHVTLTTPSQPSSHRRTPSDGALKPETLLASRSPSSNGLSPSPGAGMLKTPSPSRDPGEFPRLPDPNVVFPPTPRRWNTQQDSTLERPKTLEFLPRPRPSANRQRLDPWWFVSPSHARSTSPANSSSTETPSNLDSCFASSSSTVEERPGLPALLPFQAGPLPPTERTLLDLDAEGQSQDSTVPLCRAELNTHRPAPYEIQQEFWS
T7 sequence (Q62868 whole entry): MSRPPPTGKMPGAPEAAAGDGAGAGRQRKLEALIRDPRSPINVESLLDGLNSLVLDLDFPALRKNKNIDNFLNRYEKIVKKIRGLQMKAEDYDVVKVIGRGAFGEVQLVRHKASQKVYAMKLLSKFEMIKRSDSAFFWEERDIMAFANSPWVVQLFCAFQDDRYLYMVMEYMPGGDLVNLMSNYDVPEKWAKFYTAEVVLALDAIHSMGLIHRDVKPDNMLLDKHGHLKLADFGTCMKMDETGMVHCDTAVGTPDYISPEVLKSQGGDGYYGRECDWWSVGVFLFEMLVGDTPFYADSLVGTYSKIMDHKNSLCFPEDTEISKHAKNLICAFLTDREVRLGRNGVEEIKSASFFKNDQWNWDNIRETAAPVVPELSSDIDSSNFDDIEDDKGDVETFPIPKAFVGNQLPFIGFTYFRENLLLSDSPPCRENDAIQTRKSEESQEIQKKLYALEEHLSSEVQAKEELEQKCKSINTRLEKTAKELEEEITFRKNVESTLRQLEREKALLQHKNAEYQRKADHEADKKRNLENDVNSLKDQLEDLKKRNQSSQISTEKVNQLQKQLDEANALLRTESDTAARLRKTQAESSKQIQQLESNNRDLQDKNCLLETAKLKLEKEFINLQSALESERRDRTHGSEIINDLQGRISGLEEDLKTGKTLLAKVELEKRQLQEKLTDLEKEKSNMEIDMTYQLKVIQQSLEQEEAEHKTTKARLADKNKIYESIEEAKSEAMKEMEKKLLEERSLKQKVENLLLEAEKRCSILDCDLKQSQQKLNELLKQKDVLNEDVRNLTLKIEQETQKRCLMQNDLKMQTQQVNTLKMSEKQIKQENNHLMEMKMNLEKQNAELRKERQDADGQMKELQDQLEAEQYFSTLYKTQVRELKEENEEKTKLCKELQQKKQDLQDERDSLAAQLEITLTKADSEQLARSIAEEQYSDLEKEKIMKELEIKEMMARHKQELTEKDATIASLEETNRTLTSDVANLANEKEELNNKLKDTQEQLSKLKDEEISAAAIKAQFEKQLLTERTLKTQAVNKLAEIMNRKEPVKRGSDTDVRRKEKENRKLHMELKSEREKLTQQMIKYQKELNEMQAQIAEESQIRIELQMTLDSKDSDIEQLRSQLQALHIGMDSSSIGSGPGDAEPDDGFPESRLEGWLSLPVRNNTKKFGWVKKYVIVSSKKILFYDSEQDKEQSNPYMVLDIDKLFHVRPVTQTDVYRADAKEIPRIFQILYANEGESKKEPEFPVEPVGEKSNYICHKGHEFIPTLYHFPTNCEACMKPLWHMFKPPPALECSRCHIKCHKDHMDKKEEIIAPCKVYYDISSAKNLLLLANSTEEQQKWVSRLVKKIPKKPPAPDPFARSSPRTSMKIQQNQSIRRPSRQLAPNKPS
STK25(h), sequence (O00506 whole entry): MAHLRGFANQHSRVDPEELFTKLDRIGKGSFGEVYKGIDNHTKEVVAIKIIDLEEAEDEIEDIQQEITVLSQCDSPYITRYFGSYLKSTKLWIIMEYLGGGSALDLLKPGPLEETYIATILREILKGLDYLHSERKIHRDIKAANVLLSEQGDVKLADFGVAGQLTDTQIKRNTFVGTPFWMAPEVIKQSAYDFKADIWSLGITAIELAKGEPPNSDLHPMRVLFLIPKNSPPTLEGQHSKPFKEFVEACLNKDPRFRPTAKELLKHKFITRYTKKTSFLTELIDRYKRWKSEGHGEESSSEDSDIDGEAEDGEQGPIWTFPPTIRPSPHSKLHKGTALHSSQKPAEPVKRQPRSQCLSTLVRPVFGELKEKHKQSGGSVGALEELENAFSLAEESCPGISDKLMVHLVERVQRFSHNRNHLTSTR

`Fc1ccc(CNc2ncnc3ccc(F)cc23)cc1` [5aa, 6-Fluoro-N-(4-fluorobenzyl)-4-Quinazolinamine]: the remaining activity at 10 µM came to 95% at BIKe(h) (setting [1]); 87% on CDKL2(h) (setting [1]); 117% on JAK1(h) (setting [1]); 89% on MLK1(h) (setting [1]); 121% at NUAK2(h) (setting [1]); 87% at PKAcβ(h) (setting [1]). Moreover, the remaining activity at 10 µM was found to be 123% on Pim-3(h) (setting [1]), 90% on ROCK-II(r) (setting [1]), 114% on STK25(h) (setting [1]) and 78% at WNK1(h) (setting [1]).
For `Fc1ccc(CCNc2ncnc3ccc(F)cc23)cc1` [5as, 6-Fluoro-N-[2-(4-Fluorophenyl)Ethyl]-4-Quinazolinamine], the remaining activity at 10 µM at BIKe(h) (setting [2]) was 98%; on CDKL2(h) (setting [2]) it was 103%; at JAK1(h) (setting [2]), 93%; at MLK1(h) (setting [2]), 77%; at NUAK2(h) (setting [2]) it was 112%; on PKAcβ(h) (setting [2]), 97%. Also, the remaining activity at 10 µM at Pim-3(h) (setting [2]) came out at 92%; at ROCK-II(r) (setting [2]) it was 105%; on STK25(h) (setting [2]) it was 112%; at WNK1(h) (setting [2]) it was 81%.
Turning to `Fc1ccc2ncnc(NCCc3ccc(Cl)cc3)c2c1` [5at, N-[2-(4-Chlorophenyl)Ethyl]-6-Fluoro-4-Quinazolinamine], the remaining activity at 10 µM at BIKe(h) (setting [3]) came out at 88%; at CDKL2(h) (setting [3]), 67%; on JAK1(h) (setting [3]), 99%; at MLK1(h) (setting [3]), 76%; on NUAK2(h) (setting [3]), 117%; on PKAcβ(h) (setting [3]), 107%. In addition, the remaining activity at 10 µM on Pim-3(h) (setting [3]) amounted to 97%; at ROCK-II(r) (setting [3]), 103%; on STK25(h) (setting [3]), 111%; on WNK1(h) (setting [3]), 92%.
For `COc1ccc2ncnc(Nc3cccc(F)c3)c2c1` [5ay, N-(3-Fluorophenyl)-6-Methoxy-4-Quinazolinamine], the remaining activity at 10 µM at BIKe(h) (setting [4]) stood at 67%; at CDKL2(h) (setting [4]), 67%; at JAK1(h) (setting [4]), 90%; at MLK1(h) (setting [4]) it was 68%; on NUAK2(h) (setting [4]) it was 110%; at PKAcβ(h) (setting [4]), 85%. The remaining activity at 10 µM at Pim-3(h) (setting [4]) was found to be 96%; at ROCK-II(r) (setting [4]), 98%; on STK25(h) (setting [4]) it was 114%; at WNK1(h) (setting [4]), 75%.
